For 1 compound, EC50 results are on record in patent US20180110824A1, “Macrocyclic Modulators of the Ghrelin Receptor” (Ocera Therapeutics, Inc., priority 2016, published 2018).

Where two headings read alike, the source gives them in different places.

The experiment has as its target T1, human ghrelin receptor (hGHS-R1a) (Homo sapiens, UniProt Q92847).
T1 construct: host or cells: CHO-K1 co-expressing Gα16 and mitochondrially targeted aequorin
The experiment in a line: Aequorin functional assay (ghrelin receptor), CHO-K1 cells co-expressing Gα16 and aequorin. In kind it is cell-based. The note with it: read-out: EC50. A digest of the protocol:
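CHO-K1 cells expressing hGHS-R1a, Gα16 and mitochondrial aequorin, loaded overnight at rt with 5 μM coelenterazine, then challenged in DMEM/0.1% BSA pH 7.0 with compound at 0.001–10 μM (DMSO <0.6%).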

T1 sequence (Q92847 whole entry): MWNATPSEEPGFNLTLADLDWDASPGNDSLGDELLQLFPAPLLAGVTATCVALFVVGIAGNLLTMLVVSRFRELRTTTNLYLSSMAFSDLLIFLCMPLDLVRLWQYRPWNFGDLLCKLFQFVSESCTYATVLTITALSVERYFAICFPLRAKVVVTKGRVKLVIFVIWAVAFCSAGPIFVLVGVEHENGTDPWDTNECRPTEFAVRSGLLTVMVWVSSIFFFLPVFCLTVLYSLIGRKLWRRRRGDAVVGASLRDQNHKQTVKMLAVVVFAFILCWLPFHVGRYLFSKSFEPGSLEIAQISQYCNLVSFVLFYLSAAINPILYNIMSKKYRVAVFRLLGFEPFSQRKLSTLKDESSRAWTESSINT

For `CC1C(=O)NC(Cc2ccc(F)cc2)C(=O)NCCCc2ccccc2O[C@H](C)CNC(C2CC2)C(=O)N1C` (some centres unmarked) [compound 298], the concentration for a half-maximal effect (EC50) by setting is: (Table 4, functional (agonist) activity, TFA salts unless otherwise noted) 1 to 100 nM; (activation of hGHS-R1a, FIG. 11) 25 nM.
